Assay results reported in ChEMBL document CHEMBL5154896, “Discovery of a Novel Class of d-Amino Acid Oxidase Inhibitors Using the Schrödinger Computational Platform” (J Med Chem, 2022).

Tests used:
[1] = biological target: T1, D-amino-acid oxidase (Homo sapiens, UniProt P14920); experiment: Inhibition of recombinant full length human DAO preincubated with compound for 20 mins measured after 4 hrs by Amplex red and horseradish peroxidase based fluorescence assay
[2] = biological target: D-amino-acid oxidase (Mus musculus, UniProt P18894); experiment: Inhibition of full length mouse DAO transfected with CHO-K1 cells incubated for 30 mins by Amplex red and horseradish peroxidase based fluorescence assay; assay type: cell-based
Chain of D-amino-acid oxidase (Mus musculus, UniProt P18894) (P18894 whole entry): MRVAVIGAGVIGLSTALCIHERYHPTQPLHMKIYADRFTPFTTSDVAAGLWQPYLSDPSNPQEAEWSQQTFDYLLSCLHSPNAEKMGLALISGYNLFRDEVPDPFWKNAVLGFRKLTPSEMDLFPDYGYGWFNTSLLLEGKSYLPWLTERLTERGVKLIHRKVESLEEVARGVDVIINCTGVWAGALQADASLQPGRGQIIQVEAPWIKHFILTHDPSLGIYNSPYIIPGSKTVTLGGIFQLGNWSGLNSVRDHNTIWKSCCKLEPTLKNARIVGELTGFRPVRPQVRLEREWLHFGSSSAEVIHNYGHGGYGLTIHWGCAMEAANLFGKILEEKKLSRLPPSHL

[3] = biological target: T1, D-amino-acid oxidase; experiment: Inhibition of full length human DAO transfected in CHO-K1 cells incubated for 30 mins by Amplex red and horseradish peroxidase based fluorescence assay; assay type: cell-based
[4] = Apparent permeability across apical to basolateral membrane in MDCK-MDR1 cells by LC-MS/MS analysis; conditions: dog
[5] = Efflux ratio of apparent permeability across basolateral to apical side over apical to basolateral side in MDCK-MDR1 cells; conditions: dog

T1 sequence (P14920 whole entry): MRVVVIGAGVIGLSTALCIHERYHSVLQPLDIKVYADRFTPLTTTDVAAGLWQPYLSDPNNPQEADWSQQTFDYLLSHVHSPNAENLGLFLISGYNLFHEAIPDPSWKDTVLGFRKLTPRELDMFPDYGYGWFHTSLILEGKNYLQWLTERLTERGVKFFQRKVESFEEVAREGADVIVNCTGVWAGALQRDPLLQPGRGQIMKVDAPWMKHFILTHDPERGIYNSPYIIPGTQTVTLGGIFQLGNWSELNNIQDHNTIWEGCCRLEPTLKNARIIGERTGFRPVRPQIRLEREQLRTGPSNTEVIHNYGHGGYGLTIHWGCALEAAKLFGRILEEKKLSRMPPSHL

| Structure (SMILES) | IC50 [1] [nM] | EC50 [2] [nM] | EC50 [3] [nM] | Papp A→B [4] [×10⁻⁶ cm/s] | efflux ratio [5] |
| --- | --- | --- | --- | --- | --- |
| O=c1[nH]cc(CCc2ccc(Cl)cc2)[nH]c1=O | 320 | – | – | – | – |
| Cc1n[nH]c2cc(CCc3c[nH]c(=O)c(=O)[nH]3)ccc12 | 640 | 4300 | – | – | – |
| N#Cc1ccc(CSc2c[nH]c(=O)c(=O)[nH]2)cc1 | 43 | 310 | 250 | – | – |
| N#Cc1ccc(CCc2c[nH]c(=O)c(=O)[nH]2)cc1 | 5800 | 1500 | 1800 | 3 | 0.6 |
| O=c1[nH]cc(SCc2ccc(C(F)(F)F)nc2)[nH]c1=O | 250 | 590 | 1100 | 2.4 | 0.4 |
| C[C@@]1(c2c[nH]c(=O)c(=O)[nH]2)COc2cc(C#N)ccc2S1 | 20 | 120 | 240 | – | – |
| O=c1[nH]cc(CCc2ccccc2)[nH]c1=O | 340 | – | – | 4 | 0.4 |
| O=c1[nH]cc(CSc2ccc(Cl)cc2)[nH]c1=O | 130 | 390 | 680 | – | – |
| N#Cc1[nH]c(=O)c(=O)[nH]c1CCc1ccc(C(F)(F)F)cc1 | 250 | 340 | 540 | – | – |
| O=c1[nH]cc(C2COc3cc(C(F)(F)F)ccc3S2)[nH]c1=O (stereo not given) | 25 | 430 | 290 | – | – |
| O=c1[nH]cc(CCc2ccc(-c3cc(O)n[nH]3)c(F)c2)[nH]c1=O | 320 | 1800 | 2900 | 21 | 0.1 |
| Cc1[nH]c(=O)c(=O)[nH]c1CCc1ccc(C(F)(F)F)cc1 | 3900 | – | – | 4.8 | 2.4 |
| O=c1[nH]cc(CCc2cc(Cl)cc(Cl)c2)[nH]c1=O | 2500 | – | – | – | – |
| N#Cc1ccc(CCc2c[nH]c(=O)c(=O)[nH]2)cc1F | 180 | – | 1900 | 3.3 | 0.5 |
| O=c1[nH]cc(CCc2ccccc2Cl)[nH]c1=O | 6200 | – | – | – | – |
| O=c1[nH]cc([C@@H]2COc3cc(C(F)F)ccc3S2)[nH]c1=O | – | 290 | – | – | – |
| O=c1[nH]cc(C2COc3ccccc3S2)[nH]c1=O (racemic) | 406 | 720 | 1760 | – | – |
| O=c1[nH]cc(CSc2cnc3cc(Cl)ccc3c2)[nH]c1=O | 87 | 1400 | 1100 | – | – |
| CC1(c2c[nH]c(=O)c(=O)[nH]2)COc2ccccc2S1 (racemic) | – | 250 | – | – | – |
| CS(=O)(=O)c1ccc(SCc2c[nH]c(=O)c(=O)[nH]2)cc1 | – | 2300 | – | – | – |
| O=c1[nH]cc(CCc2cccc(Cl)c2)[nH]c1=O | 190 | – | 3500 | 6.8 | 0.9 |
| N#Cc1ccc2c(c1)OC[C@@H](c1c[nH]c(=O)c(=O)[nH]1)S2 | 20 | 780 | 630 | 3.1 | 3.1 |
| O=c1[nH]c(Cl)c(CCc2ccc(C(F)(F)F)cc2)[nH]c1=O | 1500 | – | 500 | – | – |
